In US20030207813A1, “Retroviral protease inhibitor combinations” (priority 1995, published 2003):
In brackets after ≈: the same amount, converted by molar mass. Where two headings read alike, the source gives them in different places.

Key:
[1] = system: HIV-1RF; test: CEM-T4 cell infection assay, reverse transcriptase readout, isolate RF; type: cell-based; settings: Human immunodeficiency virus 1, CEM-T4, 168 h, 7 days, read-out: Virus Isolate (EC50 ng/mL) RF
Source text: (§1) RF represents the HIV-1 strain HIV-LRF and RFR represents a mixture of resistant strains obtained by selection of RF against the compound of Example 1. RFR comprises a mixture of viral strains having protease genotypes of G48V (14/40 clones); G48V, V82A (18/40 clones); G48V, L90S (2/40 clones); G48V, 154T, V82A (1/40 clones); G48M (1/40 clones); G48V, Q61H (1/40 clones); V13I, G48V (1/40 clones); G48V, F53L, V82A (1/40 clones); and G48V, V82A, C95Y (1/40 clones). RFR2 represents a mixture of resistant strains obtained by cloning RFR by three rounds of growth at limiting dilution. RFR2 comprises a mixture of viral strains having protease genotypes of G48V, V82A (13/15 clones); G17E, G48V, V82A (1/15 clones); and G48V, V82A, N37D, N88D (1/15 clones). RFRR represents a mixture of resistant strains obtained by selection of RF against the compounds of Examples 1 and 2 and then cloning by three rounds of growth at limiting dilution. RFRR comprises a mixture of viral strains having protease genotypes of G48V, 154T, L63P, V82A (7/9 clones); G48V, 154T, L63P, V82A, N88S (1/9 clones); and G48V, 154T, L63P, G73M, V82A (1/9 clones). SF162 represents the HIV-1 strain SF-162 and SF162R represents a mixture of resistant strains obtained by selection of SF162 against the compound of Example 1. SF162R comprises a mixture of viral strains having protease genotypes of M461, F53L, L63P, A71V, N88D (2/3 clones); and M46I, F53L, L63P, A71V, N88D, Q92R (1/3 clones). 89-959 represents the HIV-1 strain 89-959 and 89-959R represents a mixture of resistant strains obtained by selection of 89-959 against the compound of Example 2. 89-959R comprises a mixture of viral strains having protease genotypes of N88S (4/5 clones); and D25N, T26A, D30N, D37N, R41K, G73D, R87K, N88S (1/4 clones). NL4 represents the HIV-1 strain HIV-1NL4-3. NL4(G48V) represents a strain having a synthetically generated site-directed mutation in the protease from glycine to valine at amino acid position number 48. NL4(I84V) represents a strain having a synthetically generated site-directed mutation in the protease from isoleucine to valine at amino acid position number 84. NL4(R8Q,M46I) represents a strain having synthetically generated site-directed mutations in the protease from arginine to glutamine at amino acid position number 8 and methionine to isoleucine at amino acid position number 46. NL4(P22-538) represents a mixture of resistant strains obtained by selection of HIV-1NL4-3 against the compound of Example 10 after 22 passages comprising protease genotypes M46I, L63P, A71V, V82F, I84V (4/10); M46I, L63P, V82F, I84V (3/10); and M46I, A71V, V82F, I84V (3/10). NL4(P37-538) represents resistant strains obtained by selection of HIV-1NL4-3 against the compound of Example 10 after 37 passages comprising protease genotype M46I, L63P, A71V, 184A. NL4(538/524) represents resistant strains obtained by selection of NL4(P22-538) against the compound of Example 5 after 24 passages comprising protease genotype M46I, L63P, A71V, 184A. NL4(538/P7-AG) represents a mixture of resistant strains obtained by selection of NL4(P22-538) against the compound of Example 12 after 7 passages comprising protease genotypes M46I, L63P, A71V, 184A; and V321, V82I. NL4(538/P24-AG) represents resistant strains obtained by selection of NL4(P22-538) against the compound of Example 12 after 24 passages comprising protease genotype M46I, L63P, A71V, 184A. NLA(P19-003) represents resistant strains obtained by selection of HIV-1^NL4-3 against the compound of Example 9 after 19 passages comprising protease genotype R8K, M46I. NL4(P34-003) represents resistant strains obtained by selection of HIV-1^NL4-3 against the compound of Example 9 after 34 passages comprising protease genotype R8K, M46I, L63P, A71V, L90M.
(§2) The viral isolate resistance results summarized in Tables 4-6 were generated according to the following assay procedure or minor modifications thereof. Assays are performed in 96-well tissue culture plates. […]

[2] = system: RFR2 (RFR cloned by three rounds of limiting dilution); test: CEM-T4 cell infection assay, reverse transcriptase readout, resistant isolate RFR2; type: cell-based, HIV-1; settings: Human immunodeficiency virus 1, 168 h, Table 6, CEM-T4 cells, 7 days, read-out: Virus Isolate (EC50 ng/mL) RFR2
Source text: as §1, §2

[3] = system: RFRR (resistant strains selected from RF against Examples 1 and 2); test: CEM-T4 cell infection assay, reverse transcriptase readout, resistant isolate RFRR; type: cell-based, HIV-1; settings: Human immunodeficiency virus 1, 168 h, Table 6, CEM-T4 cells, 7 days, read-out: Virus Isolate (EC50 ng/mL) RFRR
Source text: as §1, §2

[4] = system: HIV-1NL4-3; test: microbe, parasite or virus in culture; type: cell-based; settings: Human immunodeficiency virus 1, NL4
Source text: RF represents the HIV-1 strain HIV-LRF and RFR represents a mixture of resistant strains obtained by selection of RF against the compound of Example 1. […] RFR2 represents a mixture of resistant strains obtained by cloning RFR by three rounds of growth at limiting dilution. […] RFRR represents a mixture of resistant strains obtained by selection of RF against the compounds of Examples 1 and 2 and then cloning by three rounds of growth at limiting dilution. […] SF162 represents the HIV-1 strain SF-162 and SF162R represents a mixture of resistant strains obtained by selection of SF162 against the compound of Example 1. […] 89-959 represents the HIV-1 strain 89-959 and 89-959R represents a mixture of resistant strains obtained by selection of 89-959 against the compound of Example 2. […] NL4 represents the HIV-1 strain HIV-1NL4-3. NL4(G48V) represents a strain having a synthetically generated site-directed mutation in the protease from glycine to valine at amino acid position number 48. NL4(I84V) represents a strain having a synthetically generated site-directed mutation in the protease from isoleucine to valine at amino acid position number 84. NL4(R8Q,M46I) represents a strain having synthetically generated site-directed mutations in the protease from arginine to glutamine at amino acid position number 8 and methionine to isoleucine at amino acid position number 46.

[5] = system: NL4(P22-538); test: Viral isolate resistance assay per Markowitz et al., NL4(P22-538); type: cell-based, HIV-1; settings: Human immunodeficiency virus 1, read-out: Virus Isolate (EC50 nM) NL4(P22-538)
Source text: as §1, with “NLA(P19-003) represents resistant strains obtained by selection of HIV-1^NL4-3 against the compound of Example 9 after 19 passages comprising protease genotype R8K, M46I. NL4(P34-003) represents resistant strains obtained by selection of HIV-1^NL4-3 against the compound of Example 9 after 34 passages comprising protease genotype R8K, M46I, L63P, A71V, L90M.” left out

[6] = system: NL4(P37-538); test: Viral isolate resistance assay per Markowitz et al., NL4(P37-538); type: cell-based, HIV-1; settings: Human immunodeficiency virus 1, read-out: Virus Isolate (EC50 nM) NL4(P37-538)
Source text: as §1
The viral isolate resistance results summarized in Tables 7-11 were generated according to the assay procedures described by Markowitz et al., Journal of Virology, vol. […]

[7] = system: RFR (resistant strains selected from RF against Example 1); test: CEM-T4 cell infection assay, reverse transcriptase readout, resistant isolate RFR; type: cell-based, HIV-1; settings: Human immunodeficiency virus 1, CEM-T4, 168 h, Table 4, CEM-T4 cells, 7 days, read-out: Virus Isolate (EC50 ng/mL) RFR
Source text: as §1, §2

`CC(C)CN(C[C@@H](O)[C@H](Cc1ccccc1)NC(=O)[C@H](C)CS(C)(=O)=O)S(=O)(=O)c1ccc2c(c1)OCO2` [Example 15, N-[2R-hydroxy-3-[(2-methylpropyl)[(1,3-benzodioxol-5-yl)sulfonyl]amino]-1S-(phenylmethyl)propyl]2S-methyl-3-(methylsulfonyl)propanamide] gave an EC50 ([1]; Table 6, CEM-T4 cells) of 5 ng/mL (≈ 8.79 nM), an EC50 [2] of 9 ng/mL (≈ 15.8 nM) and an EC50 [3] of 21 ng/mL (≈ 36.9 nM). For the same molecule, the EC90 ([4]; Table 7, EC90, read-out: Virus Isolate (EC90 nM) NL4) was 60 nM, the EC50 ([4]; Table 9, read-out: Virus Isolate (EC50 nM) NL4) was 8 nM and the EC50 [5] was 400 nM. For the same molecule, the EC50 [6] was 1000 nM.
`COc1ccc(S(=O)(=O)N(CC(C)C)C[C@@H](O)[C@H](Cc2ccccc2)NC(=O)OCc2cncnc2)cc1` [Example 3, [2R-hydroxy-3-[[(4-methoxyphenyl)sulfonyl](2-methylpropyl)amino]-1S-(phenylmethyl)propyl]carbamic acid 5-pyrimidylmethyl ester] showed an EC50 ([1]; Table 4, CEM-T4 cells) of 5 ng/mL (≈ 9.21 nM) and an EC50 [7] of 2 ng/mL (≈ 3.69 nM).
In the case of `COc1ccc(S(=O)(=O)N(CC(C)C)C[C@@H](O)[C@H](Cc2ccccc2)NC(=O)[C@H](C)CS(C)(=O)=O)cc1` (relative stereo) [Example 4, [1S-[1R*(R*),2S*]]-N-[2-hydroxy-3-[N^1-(2-methylpropyl)-N-(4-methoxyphenylsulfonyl)amino]-1-(phenylmethyl)propyl]-2-methyl-3-(methylsulfonyl)propanamide], the EC50 ([1]; Table 4, CEM-T4 cells) is reported as 10 ng/mL (≈ 18 nM) and the EC50 [7] is reported as 0.4 ng/mL (≈ 0.721 nM).
